US11254958B1, “Metabolic engineering of E coli with thio-phosphate” (priority 2018, dated 2022)
Values joined by “and” are separate entries in the source; they are usually repeats but may differ in a detail not shown here. Identical values can stand only once. “Also recorded” adds a separate entry of the source.

Tests used:
E. coli K-12 = assay: RNA seq analysis of total RNA (FPKM); assay type: cell-based; parameters: hisA transcript elevation / FabB transcript elevation / TesA transcript elevation / FabD transcript elevation / FabH transcript elevation / ftsI transcript elevation / idtC transcript elevation / idtB transcript elevation: unit not given here
Method: (§1) E coli K12 bacteria were grown in high citrate minimal media with 5.4 g/L of thiophosphate or 2.4 g/L of Na2HPO4 for up to 12 hrs. The use of high citrate media was chosen to help lower the total amount of thiophosphate needed for growth when compared to regular M9 media (1). The media is prepared as follows: thiophosphate, 5.4 g/L; KCL 1.5 g/L; (NH4)2SO4, 2 g/L; sodium citrate 2H2O, 10 g/L. Adjust the pH to 7.5 and sterile filter the solution. Then add the following: MgSO4-7H2O, 0.2 g/L (sterilized separately as a conc. solution); glucose, 2 g/L sterilized separately by filtration). Glucose can also be sterilized by autoclaving separately. CaCl2 (11 mg/L) is also be added as needed.
For RNA seq analysis the RNA library was prepared using Illumina's TruSeq Stranded mRNA library prep (Illumina, 2010) without selection. The sequencing platform was HiSeq 2500 with a read format of PE 2×150. The coverage was at least 40 million per sample without rRNA depletion. A custom software build (Omegabioservice) of rRNA and tRNA sequences for reference mapping was used to more rapidly map rRNA sequences and avoid compression.
To get some idea of the impact of RNA stabilization via thiophosphate on specific mRNAs, RNA seq results were analyzed as FPKM (fragments per kilobase pair million) out of all reads including rRNA. This study was designed to give an absolute comparison rather than a relative comparison of transcript levels in total RNA. For control cells a total of 43 million reads of 150 bp in length were analyzed while 73.9 million reads were used in thiophosphate treated samples. The reads were mapped to a reference genome, E. coli K-12 substr. MG1655. One of the first things noticed was that many genes were not detected in both treated and control samples. Some of these absences were undoubtedly due to the low coverage resulting from the presence of numerous ribosomal RNA sequences in the preparations. However, even some transcripts readily detected by microarray analysis were not present. Other transcripts were not assessed due to their high copy number and the need for protracted computational time to quantitate. The second thing that was most obvious when comparing the two samples was there were many changes both positive and negative in the levels of transcripts for different genes. The results pointed to significant transcriptional changes induced secondarily via the general stabilization of RNA in vivo with thiophosphate.

[1] = test system: E. coli K12 and JM109 strains; assay: Morphological changes by bright field microscopy; assay type: cell-based
Method: as §1
To see if any morphological changes were occurring the bacteria were examined using bright field microscopy. […] To test whether this morphology was due to a nutritional deficiency K12 cells were grown in LB broth with 2.7 g of thiophosphate per liter.
In this media, filaments were detected by 8 hrs and by 2 hrs paired bacteria could be seen, as before with minimal media. In the 8 hr sample, however, the view was more mixed compared to that seen with minimal media, as both filamentous bacteria and some shorter and more normal appearing bacteria were observed.

E coli = settings: cited from earlier work
[2] = semi-synthetic media containing thiophosphate with amino acids added

With `OP(O)(O)=S` [thio-phosphate] the maximum decrease observed (E. coli K-12) was 1550 ×, the “median fold change, transcripts for 18 of the most abundant proteins” value (E. coli K-12) was 1.55 × fold and the “median fold decrease of decreased genes” value (E. coli K-12) was 2.4. For the same compound, the “median fold increase of increased genes” value (E. coli K-12) was 2.75, the “transcript level of the 2 out of 18 abundant-protein genes showing reduction” value (E. coli K-12) was 80 % of normal and the “genes expressed at low levels showing negative fold changes in mRNA” value (E. coli K-12; 12 genes expressed at low levels) was 58%. The “transcripts showing negative fold changes, average stability mRNA class” value (E. coli K-12; 33 mRNAs, half-lives between 5-7 mins, platform not given) was 30%, the “transcripts showing negative fold changes, unstable mRNA class” value (E. coli K-12; 33 mRNAs, half-lives of 3 mins or less, platform not given) was 36% and the “transcripts showing negative fold changes, stable mRNA class” value (E. coli K-12; 33 mRNAs, half-lives of 11 mins or more, platform not given) was 36%. For the same compound, the “fold increase in total FPKM counts” value (E. coli K-12; 4,311 E. coli genes, vs controls) was 1.37 × fold, the FabB transcript elevation (E. coli K-12; RNA seq) was 98 and the FabD transcript elevation (E. coli K-12; RNA seq) was 3.1. The FabH transcript elevation (E. coli K-12; RNA seq) was 10.5, the “Leu A transcript fold reduction” value (E. coli K-12; RNA seq) was about 500 × fold and the “Leu C transcript fold reduction” value (E. coli K-12; RNA seq) was about 500 × fold. For the same compound, the “Leu D transcript fold reduction” value (E. coli K-12; RNA seq) was about 500 × fold, the TesA transcript elevation (E. coli K-12; RNA seq) was 3.5 and the accA transcript elevation (E. coli K-12; RNA seq) was 19.8 ×. The accC transcript elevation (E. coli K-12; RNA seq) was 6.2 ×, the accD transcript elevation (E. coli K-12; RNA seq) was 3.39 × and 3.4 × and the “adk transcript fold elevation” value (E. coli K-12; RNA seq) was 3.4 × fold. For the same compound, the “aidB transcript fold elevation” value (E. coli K-12; RNA seq) was 4-6 × fold, the bacA transcript elevation (E. coli K-12; RNA seq) was 12 × and the cysK transcript reduction (E. coli K-12; RNA seq) was “SOX”. The cysM transcript reduction (E. coli K-12; RNA seq) was 292 ×, the ddlB transcript increase (E. coli K-12; RNA seq) was 30 × and the “dusB transcript fold elevation” value (E. coli K-12; RNA seq) was 1.18. The “dxs transcript fold increase” value (E. coli K-12; RNA seq) was 101, the hisA transcript elevation (E. coli K-12; RNA seq) was 6.2 and the hisB transcript elevation (E. coli K-12; RNA seq) was 162 ×. It also gave a hisC transcript elevation (E. coli K-12; RNA seq) of 117 ×, a hisD transcript elevation (E. coli K-12; RNA seq) of 10.9 × and a hisG transcript elevation (E. coli K-12; RNA seq) of 4.6 ×. The hisH transcript elevation (E. coli K-12; RNA seq) was 28 ×, the hisI transcript elevation (E. coli K-12; RNA seq) was 5 × and the “idi transcript fold increase” value (E. coli K-12; RNA seq) was 3.57. For the same compound, the “infB transcript fold elevation” value (E. coli K-12; RNA seq) was 3 × fold, the ispA transcript elevation (E. coli K-12; RNA seq) was 154 × and the “ispD transcript fold increase” value (E. coli K-12; RNA seq) was 2. For the same compound, the “ispE transcript fold increase” value (E. coli K-12; RNA seq) was 1.8, the “ispF transcript fold increase” value (E. coli K-12; RNA seq) was 2.6 and the “ispH transcript fold increase” value (E. coli K-12; RNA seq) was 2.2. For the same compound, the “katE transcript fold elevation” value (E. coli K-12; RNA seq) was 4-6 × fold, the murC transcript increase (E. coli K-12; RNA seq) was 26 × and the murD transcript increase (E. coli K-12; RNA seq) was 144 ×. For the same compound, the murE transcript increase (E. coli K-12; RNA seq) was 152 ×, the murF transcript increase (E. coli K-12; RNA seq) was 250 × and the murG transcript increase (E. coli K-12; RNA seq) was 199 ×. For the same compound, the “otsA transcript fold elevation” value (E. coli K-12; RNA seq) was 4-6 × fold, the prsA transcript elevation (E. coli K-12; RNA seq) was under 2 × and the “pyrG transcript fold elevation” value (E. coli K-12; RNA seq) was 2.1 × fold. For the same compound, the “pyrH transcript fold elevation” value (E. coli K-12; RNA seq) was 3.5 × fold, the “rpoS transcript fold elevation” value (E. coli K-12; RNA seq) was 2.3 × fold and the “rsfs transcript fold decrease” value (E. coli K-12; RNA seq) was 19 × fold. The trpA transcript elevation (E. coli K-12; RNA seq) was 1049 ×, the trpB transcript elevation (E. coli K-12; RNA seq) was 1955 × and the trpC transcript elevation (E. coli K-12; RNA seq) was 606 ×. For the same compound, the trpD transcript elevation (E. coli K-12; RNA seq) was 443 ×, the trpE transcript elevation (E. coli K-12; RNA seq) was 541 × and the tryD transcript elevation (E. coli K-12; RNA seq) was 443 ×. The “ybaY transcript fold elevation” value (E. coli K-12; RNA seq) was 4-6 × fold, the “ycih transcript fold elevation” value (E. coli K-12; RNA seq) was 8 × fold and the yqgf transcript elevation (E. coli K-12; RNA seq) was 4.64 ×. It also gave a ftsI transcript elevation (E. coli K-12; RNA seq (value in parentheses)) of 109, an idtB transcript elevation (E. coli K-12; RNA seq (value in parentheses)) of 164 and an idtC transcript elevation (E. coli K-12; RNA seq (value in parentheses)) of 3.6. For the same compound, the “tRNA synthetases average increase” value (E. coli K-12; RNA seq, 13 tRNA synthetases detected) was 11.7 × fold, the “CspA transcript fold increase” value (E. coli K-12; RNA seq, vs control) was 1.6 × fold and the “nusA transcript fold increase” value (E. coli K-12; RNA seq, vs control) was 3 × fold. The “average fold decrease of decreased genes” value (E. coli K-12; SD 93) was 20.4, the “average fold increase of increased genes” value (E. coli K-12; SD 291) was 44 × fold and the “fold increase in mRNA or non-ribosomal RNA” value (E. coli K-12; after correcting for expected control reading of 82% for rRNA) was 2.75 × fold. For the same compound, the “fraction of reads that were rRNA” value (E. coli K-12; custom build of E. coli rRNA sequences) was 68.7%, the “median positive fold change, average mRNA class” value (E. coli K-12; platform not given) was 2.6 × and the “median positive fold change, stable mRNA class” value (E. coli K-12; platform not given) was 2.7 ×. For the same compound, the “median positive fold change, unstable mRNA class” value (E. coli K-12; platform not given) was 1.6 ×, the “ribD, ribB, ribE and ribF gene transcripts” value (E. coli K-12; platform not given) was “did not appear to be significantly elevated” and the Nlpl fold decrease (E. coli K-12; printed as protein, platform not given) was 32 × fold. The “cdsA mRNA increase” value (E. coli K-12; value in parentheses (RNA seq)) was 21 ×, the morphology ([1]; K12, LB broth with 2.7 g of thiophosphate per liter, 12 hrs) was “Filamentous growth was not observed; also recorded: paired phenotype” and the morphology ([1]; K12, LB broth with 2.7 g of thiophosphate per liter, 12 hrs, listed as TP) was “paired phenotype”. For the same compound, the morphology ([1]; K12 and JM109, minimal thiophosphate media, 12 hrs) was “distinct filamentous morphology”, the morphology ([1]; K12 and JM109, minimal thiophosphate media, 12 hrs, listed as TP) was “filamentous phenotype” and the morphology ([1]; K12 and JM109, thiophosphate media, 2 hrs) was “appeared as pairs”. The growth [1, 2] was “good growth”, the morphology [1, 2] was “mixed with both long filamentous and shorter bacterial cells” and the “protein spots significantly changed” value (E coli; previous studies) was 28%. The “average fold change of proteins” value (E coli; prior protein results) was about 5 × fold, the proteins decreased (E coli; prior protein results) was 13% and the proteins increased (E coli; prior protein results) was 15%.
